# Key:
# Type in all cases: in vivo
# Tetranychus urticae = assay: Acaricidal test against Tetranychus urticae; conditions: 500 ppm water dilution, 15 ml sprayed over brush bean with female adults set free 6 days before; after 8 days
# Description: About twenty female adults of Tetranychus urticae were set free on brush bean (Phaseolus vulgaris) in the primary leaf stage, which had been potted in a plastic cup for 7 days after the seeding. After 6 days, a 200-fold water dilution (500 ppm) of a test compound formulation obtained according to Formulation Example 1 or 2 was sprayed at a volume of 15 ml over the plant. After 8 days, each compound was evaluated for acaricidal activity on the following criteria.
# −: almost no damage and completely no surviving mites
# ±: slight damage and some few surviving mites
# +: rather smaller damage and a rather fewer surviving mites than non-treatment case
# ++: same as non-treatment case
# Helicoverpa armigera = assay: Insecticidal test against Helicoverpa armigera; conditions: 120 h, 100 ppm water dilution, cotton leaf fragment immersed 10 seconds, third-instar larvae, after 5 days
# Procedure, shortened: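 Cotton leaf discs (5 cm) were dipped 10 s in a 100 ppm aqueous dilution of formulated compound, air-dried, and each was given one third-instar larva. Ten larvae per treatment; mortality was scored after 5 days.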
# Plutella xylostella = assay: Insecticidal test against Plutella xylostella; conditions: 96 h, 50 ppm water dilution sprayed over potted cabbages, 25 ml per pot, third-instar larvae, after 4 days, read-out: mortality
# Procedure, shortened: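 Potted cabbages at four-to-five leaf stage sprayed with 50 ppm compound formulation plus spreading agent at 3000-fold dilution, air-dried, then infested with ten third-instar larvae per pot. Mortality determined after 4 days.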
# Spodoptera litura = assay: Insecticidal test against Spodoptera litura; conditions: 144 h, 500 ppm water dilution, 2 ml absorbed in 13 g artificial diet, fourth-instar larvae, after 6 days
# Description: A 200-fold water dilution (500 ppm) of a test compound formulation obtained according to Formulation Example 1 or 2 was absorbed at a volume of 2 ml in an artificial diet (Insecta LF available from Nihon Nosan K.K.) having a weight of 13 g, which had been prepared in a polyethylene cup having a diameter of 11 cm. Five fourth-instar larvae of Spodoptera litura were set free in the cup. After 6 days, the survival of the larvae was examined to determine the mortality.
# Heliothis virescens = assay: Insecticidal test against Heliothis virescens; conditions: 168 h, 100 ppm water dilution, 0.2 ml on surface of artificial diet, second-instar larvae, after 7 days
# Description: A water dilution (100 ppm) of a test compound formulation obtained according to Formulation Example 1 was added dropwise at a volume of 0.2 ml and uniformly spread over the surface of an artificial diet having a weight of 3 g, which had been prepared in a 30 ml plastic cup. After air drying, one second-instar larva of Heliothis virescens was set free in each cup. Ten larvae were used for each treatment. After 7 days, the mortality of the larvae was determined.
smiles,measurement,setting,value
"CC(COCCCCCOc1c(Cl)cc(OCC=C(Cl)Cl)cc1Cl)=NOC(C)(C)C [(104), 5-(2,6-dichloro-4-(3,3-dichloro-2-propenyloxy)phenoxy)pentyloxyacetone O-tert-butyloxime]",acaricidal activity,Tetranychus urticae,“−” or “±”
same,mortality at 100 µg/mL,Helicoverpa armigera,≥ 80%
same,mortality at 50 µg/mL,Plutella xylostella,≥ 80%
same,mortality at 500 µg/mL,Spodoptera litura,≥ 80%
same,mortality at 100 µg/mL,Heliothis virescens,≥ 80%
